# Measurements: patent US11773071B2, “Benzothiazepine compounds and their use as bile acid modulators” (Albireo AB, priority 2019, dated 2023)
# Legend:
# [1] = Bidirectional permeability assay (Caco-2 cells); format: in vitro ADME; conditions: human, Caco-2, absorptive direction (A2B), 10 μM in FaSSIF buffer
# Procedure: (§1) Bidirectional Permeability Assay (Caco-2 Cells)
# (§2) Caco-2 cells (Evotec) were seeded at a density of 70,000 cells/well in Millicell® 24-well cell culture insert plates and maintained in an incubator (37° C., 5% CO2, 95% RH) for 21 days with media change on alternate days.
# (§3) Stock solutions (10 mM) of the test compounds, atenolol (low permeability marker), propranolol (high permeability marker) and digoxin (substrate for P-gp transport pathway) were prepared in dimethylsulfoxide (DMSO). An intermediate stock solution (1 mM) was prepared by diluting 10 μL of 10 mM master stock solution with 90 μL of neat DMSO. A working stock solution (10 μM) was prepared by diluting 50 μL of 1 mM with 4950 μL of FaSSIF buffer. Post addition of compounds to the FaSSIF, samples were subjected to sonication for 2 hours, and centrifuged at 4000 RPM for 30 minutes at 37° C. The 4 mL of resultant supernatant was directly used in the assay. The final DMSO concentration in the transport experiments was 1%.
# (§4) On the day of assay, Caco-2 monolayers were washed twice with transport buffer (HBSS, pH 7.4) and pre-incubated for 30 min (37° C., 5% CO2, 95% RH) in an incubator. The electrical resistance of the monolayers was measured with a Millicell®—ERS system. Monolayers with trans-epithelial electrical resistance (TEER) values greater than 350 ohm·cm^2 were selected for the assay.
# (§5) The assay was conducted in absorptive direction (A2B) and secretory (B2A) directions. Transport experiments were initiated by addition of transport assay buffer (FaSSIF buffer prepared in HBSS) consisting of compounds to the donor compartment (apical chamber A-B; basolateral chamber B-A) in duplicate (n=2) wells. Drug free HBSS buffer (pH 7.4) containing 1% bovine serum albumin (BSA) was introduced to the receiver (A-B-basolateral; B-A-Apical) compartments. The volumes of apical and basolateral compartments were 0.4 and 0.8 mL, respectively. After adding dosing solution, plates were incubated in an incubator for 120 minutes at 37° C. After 120 minutes, donor and receiver samples were collected and matrix matched (1:1, 30 μL study sample+30 μL blank buffer) with the opposite buffer. Dosing samples matrix matched (1:1, 30 μL study sample+30 μL blank buffer) with the opposite buffer. Samples were processed by adding acetonitrile containing internal standard (60 μL study sample+200 μL acetonitrile containing internal standard—Tolbutamide, 500 ng/mL). Samples were vortexed and centrifuged at 4000 rpm for 10 minutes. The obtained supernatant (100 μL) was diluted with 100 μL of water and transferred to fresh 96 well plates. The concentration of compounds in the samples was analyzed by liquid chromatography tandem mass spectrometry (LC-MS/MS) method using discovery grade bio-analytical method, as applicable.
# (§6) The mean apparent permeability (Papp,×10^−6 cm/sec) of the test compounds, atenolol, propranolol and digoxin were calculated as follows:
# (§7) [formula] where dq/dt=rate of transport (rate of transport of compound in the receiver compartment), C0=initial concentration in the donor compartment, A=surface area of the effective filter membrane.
# Bioavailability studies = format: in vivo, mice; conditions: male, mouse, plasma, intravenous 1 mg/kg, oral 10 mg/kg
# Procedure: Male mice (C57BL/6 or CD1) or Wistar rats of 8-9 weeks old were used. For each test compound, two groups of 3 animals each were used. One group was administered a single intravenous dose of 1 mg/kg (vehicle 100% DMSO) through the tail vein and the other group was administered a single oral dose of 10 mg/kg through gavage needle. The group that was administered an oral dose was fasted overnight. Blood samples were collected after 0.083, 0.25, 0.5, 1, 2, 4, 6, 8 and 24 hours following intravenous administration, and after 0.25, 0.5, 1, 2, 4, 6, 8 and 24 hours following oral administration. Blood samples were taken from saphenous vein. 0.2% EDTA was used as the anticoagulant. The samples were analyzed by a discovery grade bioanalytical method developed for the estimation of test compound in plasma, using an LC-MS/MS system.
# Caco-2 cells = assay: Bidirectional permeability assay (Caco-2 cells); format: in vitro ADME; conditions: absorptive direction (A2B); 10 μM in FaSSIF buffer; 120 minutes
# Procedure: as §1, §2, §3, §4, §5, §6, §7
"Papp A→B at 120 min, 10 μM [1] [×10⁻⁶ cm/s]",SMILES,further results
5.4,"CCCCC1(CC)CN(c2ccccc2)c2cc(SC)c(OCC(C)(F)C(=O)O)cc2S(=O)(=O)C1 (centres unmarked) [Example 34, 3-((3-butyl-3-ethyl-7-(methylthio)-1,1-dioxido-5-phenyl-2,3,4,5-tetrahydro-1,5-benzothiazepin-8-yl)oxy)-2-fluoro-2-methylpropanoic acid]",–
10.3,"CCCCC1(CC)CN(c2ccccc2)c2cc(SC)c(OCCC(=O)O)cc2S(=O)(=O)C1 (single isomer, unassigned) [Example 13, 3-((3-butyl-3-ethyl-7-(methylthio)-1,1-dioxido-5-phenyl-2,3,4,5-tetrahydro-1,5-benzothiazepin-8-yl)oxy)propanoic acid]",bioavailability (Bioavailability studies; CD1 mice): 102%
20.5,"CCCCC1(C)CN(c2ccccc2)c2cc(N(C)C)c(OCCC(=O)O)cc2S(=O)(=O)C1 (single isomer, unassigned) [29, enantiomer 1]",–
4,"CCCCC1(CC)CN(c2ccccc2)c2cc(SC)c(OCC(C)(F)C(=O)O)cc2S(=O)(=O)C1 (single isomer, unassigned) [35, diastereomer 1]",bioavailability (Bioavailability studies; CD1 mice): 8%
13.6,"CCCCC1(CC)CN(c2ccccc2)c2cc(Cl)c(OCCC(=O)O)cc2S(=O)(=O)C1 (single isomer, unassigned) [Example 6, 3-((3-butyl-7-chloro-3-ethyl-1,1-dioxido-5-phenyl-2,3,4,5-tetrahydro-1,5-benzothiazepin-8-yl)oxy)propanoic acid]",–
3.2,"CCCCC1(CC)CN(c2ccccc2)c2cc(SC)c(OCC(C)(O)C(=O)O)cc2S(=O)(=O)C1 (single isomer, unassigned) [48, diastereomer 2]",–
3.3,"CCCCC1(C)CN(c2ccccc2)c2cc(SC)c(OCC(O)C(=O)O)cc2S(=O)(=O)C1 (single isomer, unassigned) [32, diastereomer 1]",–
13.4,"CCCCC1(CC)CN(c2ccccc2)c2cc(Br)c(OCCC(=O)O)cc2S(=O)(=O)C1 (racemic) [Example 1, 3-((7-Bromo-3-butyl-3-ethyl-1,1-dioxido-5-phenyl-2,3,4,5-tetrahydro-1,5-benzothiazepin-8-yl)oxy)propanoic acid]",–
2.2,"CCCCC1(CCCC)CN(c2ccccc2)c2cc(Br)c(OCCC(=O)O)cc2S(=O)(=O)C1 [Example 4, 3-((7-Bromo-3,3-dibutyl-1,1-dioxido-5-phenyl-2,3,4,5-tetrahydro-1,5-benzothiazepin-8-yl)oxy)propanoic acid]",–
2.1,"CCCCC1(CCCC)CN(c2ccccc2)c2cc(SC)c(OCC(O)C(=O)O)cc2S(=O)(=O)C1 (single isomer, unassigned) [Example 10, 3-((3,3-dibutyl-7-(methylthio)-1,1-dioxido-5-phenyl-2,3,4,5-tetrahydro-1,5-benzothiazepin-8-yl)oxy)-2-hydroxypropanoic acid]",bioavailability (Bioavailability studies; C57BL/6 mice): 13%
9,"CCCCC1(CC)CN(c2ccccc2)c2cc(Cl)c(OC(C)CC(=O)O)cc2S(=O)(=O)C1 (single isomer, unassigned) [30, diastereomer 1]",–
1.6,"CCCCC1(CCCC)CN(c2ccccc2)c2cc(SC)c(OCC(O)C(=O)O)cc2S(=O)(=O)C1 (racemic) [Example 9, 3-((3,3-Dibutyl-7-(methylthio)-1,1-dioxido-5-phenyl-2,3,4,5-tetrahydro-1,5-benzothiazepin-8-yl)oxy)-2-hydroxypropanoic acid]",–
22.5,"CCCCC1(C)CN(c2ccccc2)c2cc(SC)c(OCCC(=O)O)cc2S(=O)(=O)C1 (single isomer, unassigned) [Example 24, 3-((3-butyl-3-methyl-7-(methylthio)-1,1-dioxido-5-phenyl-2,3,4,5-tetrahydro-1,5-benzothiazepin-8-yl)oxy)propanoic acid]",–
–,"CCCCC1(CCCC)CN(c2ccccc2)c2cc(SC)c(OCC(O)C(=O)O)cc2S(=O)(=O)C1 (single isomer, unassigned) [Example 11, 3-((3,3-dibutyl-7-(methylthio)-1,1-dioxido-5-phenyl-2,3,4,5-tetrahydro-1,5-benzothiazepin-8-yl)oxy)-2-hydroxypropanoic acid]",Permeability (Caco-2) Papp A2B (Caco-2 cells): 1.5 ×10⁻⁶ cm/s
9.7,"CCCCC1(CCCC)CN(c2ccccc2)c2cc(SC)c(OCCC(=O)O)cc2S(=O)(=O)C1 [Example 15, 3-((3,3-dibutyl-7-(methylthio)-1,1-dioxido-5-phenyl-2,3,4,5-tetrahydro-1,5-benzothiazepin-8-yl)oxy)propanoic acid]",–
3.4,"CCCCC1(CC)CN(c2ccccc2)c2cc(Br)c(OCCC(=O)O)cc2S(=O)(=O)C1 (single isomer, unassigned) [Example 2, 3-((7-bromo-3-butyl-3-ethyl-1,1-dioxido-5-phenyl-2,3,4,5-tetrahydro-1,5-benzothiazepin-8-yl)oxy)propanoic acid]",bioavailability (Bioavailability studies; C57BL/6 mice): 104%
